{
  "source": "paper PMC8120209",
  "about": "“Longitudinal evaluation of a novel BChE PET tracer as an early in vivo biomarker in the brain of a mouse model for Alzheimer disease” (Theranostics, 2021)",
  "assay_in_all_cases": "biochemical",
  "key": {"[1]": {"target": "T1, N neuronal α7 (h) (Homo sapiens, UniProt P36544)", "T1 construct": "gene CHRNA7", "parameters": "Eurofins SafetyScreen44 radioligand displacement, inhibition of control specific binding", "details": "read-out: % Inhibition of Control Specific Binding, Mean"}, "[2]": {"target": "T2, 5-HT1B (h) (Homo sapiens, UniProt P28222)", "T2 construct": "gene HTR1B", "parameters": "Eurofins SafetyScreen44 radioligand displacement, inhibition of control specific binding", "details": "read-out: % Inhibition of Control Specific Binding, Mean"}, "[3]": {"target": "T3, D2L(h) (Homo sapiens, UniProt P14416)", "T3 construct": "gene DRD2; long isoform D2L", "T3 sequence (P14416 whole entry, canonical isoform)": "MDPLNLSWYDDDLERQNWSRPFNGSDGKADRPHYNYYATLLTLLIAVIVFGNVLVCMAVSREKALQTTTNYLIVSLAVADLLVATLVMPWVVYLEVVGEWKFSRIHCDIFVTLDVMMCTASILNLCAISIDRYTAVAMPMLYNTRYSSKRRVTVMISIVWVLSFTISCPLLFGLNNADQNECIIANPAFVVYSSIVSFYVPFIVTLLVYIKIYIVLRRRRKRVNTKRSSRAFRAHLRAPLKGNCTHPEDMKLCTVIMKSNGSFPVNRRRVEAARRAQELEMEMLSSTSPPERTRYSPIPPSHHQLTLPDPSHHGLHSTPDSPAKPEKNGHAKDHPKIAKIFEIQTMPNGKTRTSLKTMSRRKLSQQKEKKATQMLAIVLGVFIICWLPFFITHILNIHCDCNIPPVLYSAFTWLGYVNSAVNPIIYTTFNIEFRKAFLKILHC", "parameters": "Eurofins SafetyScreen44 radioligand displacement, inhibition of control specific binding", "details": "read-out: % Inhibition of Control Specific Binding, Mean"}, "[4]": {"target": "T4, H1(h) (Homo sapiens, UniProt P35367)", "T4 construct": "gene HRH1", "parameters": "Eurofins SafetyScreen44 radioligand displacement, inhibition of control specific binding", "details": "read-out: % Inhibition of Control Specific Binding, Mean"}, "[5]": {"target": "T5, V1a(h) (Homo sapiens, UniProt P37288)", "T5 construct": "gene AVPR1A", "parameters": "Eurofins SafetyScreen44 radioligand displacement, inhibition of control specific binding", "details": "read-out: % Inhibition of Control Specific Binding, Mean"}, "[6]": {"target": "T6, 5-HT2B(h) (Homo sapiens, UniProt P41595)", "T6 construct": "gene HTR2B", "parameters": "Eurofins SafetyScreen44 radioligand displacement, inhibition of control specific binding", "details": "read-out: % Inhibition of Control Specific Binding, Mean"}, "[7]": {"target": "T7, 5-HT5a(h) (Homo sapiens, UniProt P47898)", "T7 construct": "gene HTR5A", "T7 sequence (P47898 whole entry)": "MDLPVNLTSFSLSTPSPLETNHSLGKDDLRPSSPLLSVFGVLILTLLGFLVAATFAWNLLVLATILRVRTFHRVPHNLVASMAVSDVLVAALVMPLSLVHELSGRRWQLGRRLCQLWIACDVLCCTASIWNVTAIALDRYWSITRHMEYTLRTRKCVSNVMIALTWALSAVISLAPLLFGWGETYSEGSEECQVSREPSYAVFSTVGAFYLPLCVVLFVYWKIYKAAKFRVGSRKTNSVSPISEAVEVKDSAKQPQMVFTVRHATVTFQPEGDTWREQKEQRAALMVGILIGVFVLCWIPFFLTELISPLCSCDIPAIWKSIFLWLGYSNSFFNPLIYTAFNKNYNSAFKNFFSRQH", "parameters": "Eurofins SafetyScreen44 radioligand displacement, inhibition of control specific binding", "details": "read-out: % Inhibition of Control Specific Binding, Mean"}, "[8]": {"target": "T8, M1(h) (Homo sapiens, UniProt P11229)", "T8 construct": "gene CHRM1", "parameters": "Eurofins SafetyScreen44 radioligand displacement, inhibition of control specific binding", "details": "read-out: % Inhibition of Control Specific Binding, Mean"}, "[9]": {"target": "T9, μ (MOP) (h) (Homo sapiens, UniProt P35372)", "T9 construct": "gene OPRM1", "parameters": "Eurofins SafetyScreen44 radioligand displacement, inhibition of control specific binding", "details": "read-out: % Inhibition of Control Specific Binding, Mean"}, "[10]": {"target": "T10, 5-HT transporter (h) (Homo sapiens, UniProt P31645)", "T10 construct": "gene SLC6A4", "T10 sequence (P31645 whole entry)": "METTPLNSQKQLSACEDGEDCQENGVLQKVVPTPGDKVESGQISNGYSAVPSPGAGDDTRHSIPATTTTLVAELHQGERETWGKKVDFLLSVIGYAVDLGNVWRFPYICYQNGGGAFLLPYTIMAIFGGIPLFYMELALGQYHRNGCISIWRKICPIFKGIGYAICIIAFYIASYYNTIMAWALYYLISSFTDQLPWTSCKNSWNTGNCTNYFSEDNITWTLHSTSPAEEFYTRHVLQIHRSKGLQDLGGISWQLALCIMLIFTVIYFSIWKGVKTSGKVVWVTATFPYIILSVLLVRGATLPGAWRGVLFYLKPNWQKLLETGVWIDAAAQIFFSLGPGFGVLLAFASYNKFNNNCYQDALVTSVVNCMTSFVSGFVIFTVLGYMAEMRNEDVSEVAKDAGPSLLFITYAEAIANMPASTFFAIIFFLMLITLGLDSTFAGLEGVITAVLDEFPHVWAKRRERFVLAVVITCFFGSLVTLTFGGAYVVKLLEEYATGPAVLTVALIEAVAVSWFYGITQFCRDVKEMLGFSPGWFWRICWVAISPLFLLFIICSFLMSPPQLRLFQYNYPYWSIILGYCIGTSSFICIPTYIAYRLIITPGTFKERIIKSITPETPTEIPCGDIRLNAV", "parameters": "Eurofins SafetyScreen44 radioligand displacement, inhibition of control specific binding", "details": "read-out: % Inhibition of Control Specific Binding, Mean"}, "[11]": {"target": "T11, 5-HT3(h) (Homo sapiens, UniProt P46098)", "T11 construct": "gene HTR3A", "T11 sequence (P46098 whole entry)": "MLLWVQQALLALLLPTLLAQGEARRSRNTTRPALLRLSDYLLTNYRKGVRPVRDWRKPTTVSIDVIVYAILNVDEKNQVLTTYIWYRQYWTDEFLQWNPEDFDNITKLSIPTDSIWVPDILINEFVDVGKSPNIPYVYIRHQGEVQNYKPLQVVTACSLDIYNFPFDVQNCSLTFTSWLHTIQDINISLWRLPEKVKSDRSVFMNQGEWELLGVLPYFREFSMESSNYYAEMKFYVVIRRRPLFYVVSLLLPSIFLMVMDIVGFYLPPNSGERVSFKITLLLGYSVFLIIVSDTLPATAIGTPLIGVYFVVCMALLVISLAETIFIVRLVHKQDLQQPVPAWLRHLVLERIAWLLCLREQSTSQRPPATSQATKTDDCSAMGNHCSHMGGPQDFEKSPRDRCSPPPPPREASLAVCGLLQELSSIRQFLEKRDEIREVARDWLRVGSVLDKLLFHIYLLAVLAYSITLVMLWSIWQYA", "parameters": "Eurofins SafetyScreen44 radioligand displacement, inhibition of control specific binding", "details": "read-out: % Inhibition of Control Specific Binding, Mean"}, "[12]": {"target": "T12, D2S(h) (Homo sapiens, UniProt P14416)", "T12 construct": "gene DRD2; short isoform D2S", "T12 sequence (P14416 whole entry, canonical isoform)": "as the sequence (P14416 whole entry, canonical isoform) above", "parameters": "Eurofins SafetyScreen44 radioligand displacement, inhibition of control specific binding", "details": "read-out: % Inhibition of Control Specific Binding, Mean"}, "[13]": {"target": "T13, δ (DOP) (h) (Homo sapiens, UniProt P41143)", "T13 construct": "gene OPRD1", "T13 sequence (P41143 whole entry)": "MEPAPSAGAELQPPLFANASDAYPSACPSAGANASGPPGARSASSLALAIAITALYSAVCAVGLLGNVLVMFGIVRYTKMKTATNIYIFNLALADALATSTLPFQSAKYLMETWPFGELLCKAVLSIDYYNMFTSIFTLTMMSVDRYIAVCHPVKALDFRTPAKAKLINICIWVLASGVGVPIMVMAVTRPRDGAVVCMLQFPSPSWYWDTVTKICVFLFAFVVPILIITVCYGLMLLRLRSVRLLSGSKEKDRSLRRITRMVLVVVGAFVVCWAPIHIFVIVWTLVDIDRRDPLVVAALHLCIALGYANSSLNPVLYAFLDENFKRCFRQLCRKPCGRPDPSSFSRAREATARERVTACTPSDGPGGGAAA", "parameters": "Eurofins SafetyScreen44 radioligand displacement, inhibition of control specific binding", "details": "read-out: % Inhibition of Control Specific Binding, Mean"}, "[14]": {"target": "T14, H2(h) (Homo sapiens, UniProt P25021)", "T14 construct": "gene HRH2", "T14 sequence (P25021 whole entry)": "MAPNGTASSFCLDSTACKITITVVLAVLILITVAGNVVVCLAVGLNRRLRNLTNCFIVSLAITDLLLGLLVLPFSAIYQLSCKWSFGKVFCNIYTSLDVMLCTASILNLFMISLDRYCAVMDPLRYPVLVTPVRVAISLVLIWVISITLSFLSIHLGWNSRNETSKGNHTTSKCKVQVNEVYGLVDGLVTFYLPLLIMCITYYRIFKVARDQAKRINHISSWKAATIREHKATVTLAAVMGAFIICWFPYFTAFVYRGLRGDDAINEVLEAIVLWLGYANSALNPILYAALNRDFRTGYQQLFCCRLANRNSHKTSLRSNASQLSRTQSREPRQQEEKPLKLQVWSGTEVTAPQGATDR", "parameters": "Eurofins SafetyScreen44 radioligand displacement, inhibition of control specific binding", "details": "read-out: % Inhibition of Control Specific Binding, Mean"}, "[15]": {"target": "T15, sigma 1 (h) (Homo sapiens, UniProt Q99720)", "T15 construct": "gene SIGMAR1", "T15 sequence (Q99720 whole entry)": "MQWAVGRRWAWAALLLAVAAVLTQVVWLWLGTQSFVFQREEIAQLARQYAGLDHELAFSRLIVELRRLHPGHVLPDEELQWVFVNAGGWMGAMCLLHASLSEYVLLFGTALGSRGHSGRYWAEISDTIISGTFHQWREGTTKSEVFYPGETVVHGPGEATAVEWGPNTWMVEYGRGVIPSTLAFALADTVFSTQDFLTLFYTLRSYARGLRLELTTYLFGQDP", "parameters": "Eurofins SafetyScreen44 radioligand displacement, inhibition of control specific binding", "details": "read-out: % Inhibition of Control Specific Binding, Mean"}, "[16]": {"target": "T16, M5(h) (Homo sapiens, UniProt P08912)", "T16 construct": "gene CHRM5", "parameters": "Eurofins SafetyScreen44 radioligand displacement, inhibition of control specific binding", "details": "read-out: % Inhibition of Control Specific Binding, Mean"}, "[17]": {"target": "T17, dopamine transporter(h) (Homo sapiens, UniProt Q01959)", "T17 construct": "gene SLC6A3", "T17 sequence (Q01959 whole entry)": "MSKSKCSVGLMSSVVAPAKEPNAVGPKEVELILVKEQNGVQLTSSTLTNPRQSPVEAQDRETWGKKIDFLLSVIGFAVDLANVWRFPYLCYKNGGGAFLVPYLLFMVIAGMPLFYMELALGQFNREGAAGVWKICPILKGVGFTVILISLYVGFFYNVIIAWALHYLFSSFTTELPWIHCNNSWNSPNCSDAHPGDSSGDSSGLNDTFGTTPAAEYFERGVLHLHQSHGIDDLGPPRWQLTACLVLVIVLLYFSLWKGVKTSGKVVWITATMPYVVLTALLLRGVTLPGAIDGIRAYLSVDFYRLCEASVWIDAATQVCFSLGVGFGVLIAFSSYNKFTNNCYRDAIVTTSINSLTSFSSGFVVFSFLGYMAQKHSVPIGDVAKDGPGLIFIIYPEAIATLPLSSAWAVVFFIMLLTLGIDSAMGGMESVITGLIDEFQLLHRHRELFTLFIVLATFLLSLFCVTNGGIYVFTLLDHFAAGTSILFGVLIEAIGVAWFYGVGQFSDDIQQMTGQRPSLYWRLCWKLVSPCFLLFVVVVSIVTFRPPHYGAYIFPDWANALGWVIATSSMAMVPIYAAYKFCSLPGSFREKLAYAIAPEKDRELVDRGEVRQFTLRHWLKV", "parameters": "Eurofins SafetyScreen44 radioligand displacement, inhibition of control specific binding", "details": "read-out: % Inhibition of Control Specific Binding, Mean"}, "[18]": {"target": "T18, D3(h) (Homo sapiens, UniProt P35462)", "T18 construct": "gene DRD3", "parameters": "Eurofins SafetyScreen44 radioligand displacement, inhibition of control specific binding", "details": "read-out: % Inhibition of Control Specific Binding, Mean"}, "[19]": {"target": "T19, ETA(h) (Homo sapiens, UniProt P25101)", "T19 construct": "gene EDNRA", "T19 sequence (P25101 whole entry)": "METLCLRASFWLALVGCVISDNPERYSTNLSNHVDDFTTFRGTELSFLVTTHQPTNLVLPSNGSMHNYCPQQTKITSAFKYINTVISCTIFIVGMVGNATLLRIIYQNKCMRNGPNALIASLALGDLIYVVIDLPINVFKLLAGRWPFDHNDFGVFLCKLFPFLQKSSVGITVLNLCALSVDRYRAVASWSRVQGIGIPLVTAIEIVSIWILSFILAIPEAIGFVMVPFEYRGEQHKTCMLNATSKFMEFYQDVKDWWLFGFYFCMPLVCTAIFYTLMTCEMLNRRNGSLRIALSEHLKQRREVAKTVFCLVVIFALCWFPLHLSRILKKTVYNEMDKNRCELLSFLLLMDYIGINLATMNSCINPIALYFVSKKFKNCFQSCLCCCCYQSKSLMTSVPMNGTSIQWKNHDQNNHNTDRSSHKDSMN", "parameters": "Eurofins SafetyScreen44 radioligand displacement, inhibition of control specific binding", "details": "read-out: % Inhibition of Control Specific Binding, Mean"}, "[20]": {"target": "T20, acetylcholinesterase (h) (Homo sapiens, UniProt P22303)", "T20 construct": "gene ACHE", "parameters": "Eurofins SafetyScreen44 enzyme assays, inhibition of control specific activity", "details": "read-out: % Inhibition of Control Values, Mean"}, "[21]": {"target": "T21, COX1(h) (Homo sapiens, UniProt P23219)", "T21 construct": "gene PTGS1", "parameters": "Eurofins SafetyScreen44 enzyme assays, inhibition of control specific activity", "details": "read-out: % Inhibition of Control Values, Mean"}, "[22]": {"target": "T22, COX2(h) (Homo sapiens, UniProt P35354)", "T22 construct": "gene PTGS2", "parameters": "Eurofins SafetyScreen44 enzyme assays, inhibition of control specific activity", "details": "read-out: % Inhibition of Control Values, Mean"}, "[23]": {"target": "PDE3A (h) (Homo sapiens, UniProt Q14432)", "parameters": "Eurofins SafetyScreen44 enzyme assays, inhibition of control specific activity", "details": "read-out: % Inhibition of Control Values, Mean"}, "[24]": {"target": "T23, PDE4D2 (h) (Homo sapiens, UniProt Q08499)", "T23 construct": "gene PDE4D; isoform PDE4D2", "T23 sequence (Q08499 whole entry, canonical isoform)": "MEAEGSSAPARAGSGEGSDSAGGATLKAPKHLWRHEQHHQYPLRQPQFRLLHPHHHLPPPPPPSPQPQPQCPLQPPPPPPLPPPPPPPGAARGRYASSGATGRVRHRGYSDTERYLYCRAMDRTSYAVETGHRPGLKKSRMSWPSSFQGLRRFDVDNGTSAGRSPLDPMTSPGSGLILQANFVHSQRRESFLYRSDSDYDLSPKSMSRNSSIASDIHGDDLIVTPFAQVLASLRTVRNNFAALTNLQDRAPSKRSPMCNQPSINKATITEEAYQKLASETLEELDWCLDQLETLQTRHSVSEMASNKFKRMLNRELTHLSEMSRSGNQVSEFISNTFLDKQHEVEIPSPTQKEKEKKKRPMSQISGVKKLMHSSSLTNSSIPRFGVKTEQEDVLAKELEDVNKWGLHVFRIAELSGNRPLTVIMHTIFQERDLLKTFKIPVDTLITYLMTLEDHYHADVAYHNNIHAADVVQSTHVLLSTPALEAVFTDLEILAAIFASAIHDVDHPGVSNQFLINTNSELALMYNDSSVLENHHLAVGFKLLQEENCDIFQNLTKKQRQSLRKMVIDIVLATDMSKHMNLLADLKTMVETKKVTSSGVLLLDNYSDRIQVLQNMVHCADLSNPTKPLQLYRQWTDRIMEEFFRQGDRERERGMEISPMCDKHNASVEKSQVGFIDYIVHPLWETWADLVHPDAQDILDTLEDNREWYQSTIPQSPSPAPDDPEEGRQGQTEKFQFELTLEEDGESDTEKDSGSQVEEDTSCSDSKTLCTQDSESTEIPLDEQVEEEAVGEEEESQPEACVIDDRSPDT", "parameters": "Eurofins SafetyScreen44 enzyme assays, inhibition of control specific activity", "details": "read-out: % Inhibition of Control Values, Mean"}, "[25]": {"target": "T24, 5-HT2A(h) (Homo sapiens, UniProt P28223)", "T24 construct": "gene HTR2A", "parameters": "Eurofins SafetyScreen44 radioligand displacement, inhibition of control specific binding", "details": "read-out: % Inhibition of Control Specific Binding, Mean"}},
  "data": [
    {"compound": "COCCN(CC1CCCN(Cc2ccccc2)C1)S(=O)(=O)c1ccc2ccccc2c1", "note": "(racemic) [compound 4, (±)N-((1-benzylpiperidin-3-yl)methyl)-N-(2-methoxyethyl)naphthalene-2-sulfonamide]", "values": [
      {"measurement": "inhibition at 10 µM", "setting": "[1]", "result": 18.2, "unit": "%"},
      {"measurement": "inhibition at 10 µM", "setting": "[2]", "result": 45, "unit": "%"},
      {"measurement": "inhibition at 10 µM", "setting": "[3]", "result": 26.6, "unit": "%"},
      {"measurement": "inhibition at 10 µM", "setting": "[4]", "result": 29, "unit": "%"},
      {"measurement": "inhibition at 10 µM", "setting": "[5]", "result": 33.8, "unit": "%"},
      {"measurement": "inhibition at 10 µM", "setting": "[6]", "result": 88.4, "unit": "%"},
      {"measurement": "inhibition at 10 µM", "setting": "[7]", "result": 42.5, "unit": "%"},
      {"measurement": "inhibition at 10 µM", "setting": "[8]", "result": 53.1, "unit": "%"},
      {"measurement": "inhibition at 10 µM", "setting": "[9]", "result": 82.7, "unit": "%"},
      {"measurement": "inhibition at 10 µM", "setting": "[10]", "result": 12.7, "unit": "%"},
      {"measurement": "inhibition at 10 µM", "setting": "[11]", "result": -2.7, "unit": "%"},
      {"measurement": "inhibition at 10 µM", "setting": "[12]", "result": 55.6, "unit": "%"},
      {"measurement": "inhibition at 10 µM", "setting": "[13]", "result": 32.8, "unit": "%"},
      {"measurement": "inhibition at 10 µM", "setting": "[14]", "result": 27, "unit": "%"},
      {"measurement": "inhibition at 10 µM", "setting": "[15]", "result": 99.9, "unit": "%"},
      {"measurement": "inhibition at 10 µM", "setting": "[16]", "result": 17.6, "unit": "%"},
      {"measurement": "inhibition at 10 µM", "setting": "[17]", "result": 26, "unit": "%"},
      {"measurement": "inhibition at 10 µM", "setting": "[18]", "result": 38.4, "unit": "%"},
      {"measurement": "inhibition at 10 µM", "setting": "[19]", "result": -3.9, "unit": "%"},
      {"measurement": "inhibition at 10 µM", "setting": "[20]", "result": 12.3, "unit": "%"},
      {"measurement": "inhibition at 10 µM", "setting": "[21]", "result": 0.4, "unit": "%"},
      {"measurement": "inhibition at 10 µM", "setting": "[22]", "result": 2.2, "unit": "%"},
      {"measurement": "inhibition at 10 µM", "setting": "[23]", "result": 7, "unit": "%"},
      {"measurement": "inhibition at 10 µM", "setting": "[24]", "result": -3.7, "unit": "%"},
      {"measurement": "inhibition at 10 µM", "setting": "[25]", "result": 93, "unit": "%"}
    ]}
  ]
}
